Test system: JTNT1 single cells
Experiment: AFLP analysis of genomic instability in JTNT1 single cells produced in 1 uM diphenylpyrazole
Format: cell-based, tobacco
Experimental: JTNT1 Tobacco single cell initiation and sample collection. JTNT1 Tobacco single cells were initiated in two different media, NT1B with 3% sucrose (NT1B-Suc) and NT1B with 3% glycerol (NT1B-Gly) in 3.5 day culture cycle. […] The flasks were closed with a foam stopper and cultured on a orbital shaker at 130 rpm in dark at 25-28° C. The cultures were sub cultured every 3.5 days up to a period of 14 days. Four samples (Suc/Gly grown cells and the control cultures in Suc/Gly media with 0.2% DMSO) of the cultures were harvested every 3.5 days by spinning the suspension at 3000 rpm for 5 minutes. The samples were immediately lyophilized to prevent any cell oxidation to minimize any deleterious effect on the samples introduced post harvest. Single cells were stained with Hoechst nuclear stain for an hour and observed under scopes for any nuclear anomaly up to two culture cycles.
DNA extraction. Genomic DNA from representative samples were harvested from 3.5, 7, 10.5, and 14 days. Suc and Gly cultures along with the controls (10 samples) were extracted using CTAB protocol (See Appendix-Example 12). DNA was quantified using PicoGreen® dye from Molecular Probes, Inc. (Eugene, Oreg.). Each well of a microtiter plate contained 90 μl of 200-fold picogreen combined with 10 μl of DNA sample at 40× dilution or Lambda DNA standards (0, 2.5, 5 and 10 ng/μl). Plates were shaken briefly using standard plate shaker, and fluorescence was read (excitation ˜480 nm, emission ˜520 nm) using Spectra Max GeminiXS fluorometer from Molecular Devices (Sunnyvale, Calif.). Each sample was quantified in triplicate, and an average of the three results was used for subsequent dilutions. The DNA sample concentrations were diluted to working concentration of 91 ng/μl with sterile water.
AFLP analysis. Amplified fragment length polymorphism (AFLP) assays were performed using a modification of the protocol of Vos et. al. (1995), as described in Bryan et. al. (2002). The 6-bp cutting restriction enzyme EcoRI was used in combination with the 4-bp cutting restriction enzyme MseI. EcoR1 fluorescently labeled and Mse1 non-labeled AFLP primers were ordered from Applied Biosystems (Foster City, Calif.). AFLP analysis was carried out using Applied Biosystems' AFLP Plant Mapping Protocol through the selective amplification reaction with one modification. The modification was that digestion/ligation reactions were incubated at 37° C. overnight. Selectively amplified products were diluted 2 fold in sterilized deionized water. 0.5 ul of the diluted product was combined with 5 ul of loading buffer (5 ul GeneScan 500 by LIZ size standard mixed with 500 ul ABI HiDi Formamide). Samples were analyzed on an AB3730XL DNA Analyzer with G5-RCT spectral matrix using standard conditions. Data was then imported into GeneMapper® version 4.0 (Applied Biosystems, 2005). Alleles were assigned a numeric value according to PCR fragment size.

Number of polymorphic bands, Total (all primer combinations, 14 d, Gly, 1 uM): 34 | subculture cycles without genomic instability problem (concentration range tested): at least 4 subculture cycles | Number of polymorphic bands (primer 1p AC/CAG, 3.5 d, Gly, 1 uM): 0 | Number of polymorphic bands (primer 1p AC/CAG, 3.5 d, Suc, 1 uM): 0 | Number of polymorphic bands (primer 1p AC/CAG, 7 d, Gly, 1 uM): 0 | Number of polymorphic bands (primer 1p AC/CAG, 7 d, Suc, 1 uM): 0 | Number of polymorphic bands (primer 1p AC/CAG, 10.5 d, Gly, 1 uM): 0 | Number of polymorphic bands (primer 1p AC/CAG, 10.5 d, Suc, 1 uM): 0 | Number of polymorphic bands (primer 1p AC/CAG, 14 d, Gly, 1 uM): 5 | Number of polymorphic bands (primer 1p AC/CAG, 14 d, Suc, 1 uM): 0 | Number of polymorphic bands (primer 2p AGC/CAG, 3.5 d, Gly, 1 uM): 0 | Number of polymorphic bands (primer 2p AGC/CAG, 3.5 d, Suc, 1 uM): 0 | Number of polymorphic bands (primer 2p AGC/CAG, 7 d, Gly, 1 uM): 0 | Number of polymorphic bands (primer 2p AGC/CAG, 7 d, Suc, 1 uM): 0 | Number of polymorphic bands (primer 2p AGC/CAG, 10.5 d, Gly, 1 uM): 0 | Number of polymorphic bands (primer 2p AGC/CAG, 10.5 d, Suc, 1 uM): 0 | Number of polymorphic bands (primer 2p AGC/CAG, 14 d, Gly, 1 uM): 10 | Number of polymorphic bands (primer 2p AGC/CAG, 14 d, Suc, 1 uM): 0 | Number of polymorphic bands (primer 3p AGC/CTG, 3.5 d, Gly, 1 uM): 0 | Number of polymorphic bands (primer 3p AGC/CTG, 3.5 d, Suc, 1 uM): 0 | Number of polymorphic bands (primer 3p AGC/CTG, 7 d, Gly, 1 uM): 0 | Number of polymorphic bands (primer 3p AGC/CTG, 7 d, Suc, 1 uM): 0 | Number of polymorphic bands (primer 3p AGC/CTG, 10.5 d, Gly, 1 uM): 0 | Number of polymorphic bands (primer 3p AGC/CTG, 10.5 d, Suc, 1 uM): 0 | Number of polymorphic bands (primer 3p AGC/CTG, 14 d, Gly, 1 uM): 0 | Number of polymorphic bands (primer 3p AGC/CTG, 14 d, Suc, 1 uM): 0 | Number of polymorphic bands (primer 4p ACT/CTT, 3.5 d, Gly, 1 uM): 0 | Number of polymorphic bands (primer 4p ACT/CTT, 3.5 d, Suc, 1 uM): 0 | Number of polymorphic bands (primer 4p ACT/CTT, 7 d, Gly, 1 uM): 0 | Number of polymorphic bands (primer 4p ACT/CTT, 7 d, Suc, 1 uM): 0 | Number of polymorphic bands (primer 4p ACT/CTT, 10.5 d, Gly, 1 uM): 0 | Number of polymorphic bands (primer 4p ACT/CTT, 10.5 d, Suc, 1 uM): 0 | Number of polymorphic bands (primer 4p ACT/CTT, 14 d, Gly, 1 uM): 5 | Number of polymorphic bands (primer 4p ACT/CTT, 14 d, Suc, 1 uM): 0 | Number of polymorphic bands (primer 5p ACT/CAG, 3.5 d, Gly, 1 uM): 0 | Number of polymorphic bands (primer 5p ACT/CAG, 3.5 d, Suc, 1 uM): 0 | Number of polymorphic bands (primer 5p ACT/CAG, 7 d, Gly, 1 uM): 0 | Number of polymorphic bands (primer 5p ACT/CAG, 7 d, Suc, 1 uM): 0 | Number of polymorphic bands (primer 5p ACT/CAG, 10.5 d, Gly, 1 uM): 0 | Number of polymorphic bands (primer 5p ACT/CAG, 10.5 d, Suc, 1 uM): 0 | Number of polymorphic bands (primer 5p ACT/CAG, 14 d, Gly, 1 uM): 3 | Number of polymorphic bands (primer 5p ACT/CAG, 14 d, Suc, 1 uM): 0 | Number of polymorphic bands (primer 7p ACC/CAG, 3.5 d, Gly, 1 uM): 0 | Number of polymorphic bands (primer 7p ACC/CAG, 3.5 d, Suc, 1 uM): 0 | Number of polymorphic bands (primer 7p ACC/CAG, 7 d, Gly, 1 uM): 0 | Number of polymorphic bands (primer 7p ACC/CAG, 7 d, Suc, 1 uM): 0 | Number of polymorphic bands (primer 7p ACC/CAG, 10.5 d, Gly, 1 uM): 0 | Number of polymorphic bands (primer 7p ACC/CAG, 10.5 d, Suc, 1 uM): 0 | Number of polymorphic bands (primer 7p ACC/CAG, 14 d, Gly, 1 uM): 4 | Number of polymorphic bands (primer 7p ACC/CAG, 14 d, Suc, 1 uM): 0 | Number of polymorphic bands (primer 8p ACC/CTG, 3.5 d, Gly, 1 uM): 0 | Number of polymorphic bands (primer 8p ACC/CTG, 3.5 d, Suc, 1 uM): 0 | Number of polymorphic bands (primer 8p ACC/CTG, 7 d, Gly, 1 uM): 0 | Number of polymorphic bands (primer 8p ACC/CTG, 7 d, Suc, 1 uM): 0 | Number of polymorphic bands (primer 8p ACC/CTG, 10.5 d, Gly, 1 uM): 0 | Number of polymorphic bands (primer 8p ACC/CTG, 10.5 d, Suc, 1 uM): 0 | Number of polymorphic bands (primer 8p ACC/CTG, 14 d, Gly, 1 uM): 0 | Number of polymorphic bands (primer 8p ACC/CTG, 14 d, Suc, 1 uM): 0 | Number of polymorphic bands (primer 9p ACA/CAG, 3.5 d, Gly, 1 uM): 0 | Number of polymorphic bands (primer 9p ACA/CAG, 3.5 d, Suc, 1 uM): 0 | Number of polymorphic bands (primer 9p ACA/CAG, 7 d, Gly, 1 uM): 0 | Number of polymorphic bands (primer 9p ACA/CAG, 7 d, Suc, 1 uM): 0 | Number of polymorphic bands (primer 9p ACA/CAG, 10.5 d, Gly, 1 uM): 0 | Number of polymorphic bands (primer 9p ACA/CAG, 10.5 d, Suc, 1 uM): 0 | Number of polymorphic bands (primer 9p ACA/CAG, 14 d, Gly, 1 uM): 7 | Number of polymorphic bands (primer 9p ACA/CAG, 14 d, Suc, 1 uM): 0
SMILES: CCOC(=O)COc1nn(-c2ccccc2)c(-c2ccccc2)c1Cl [DAS-PMTI-1]

Source: patent US8206983B2, “In vitro methods for the induction and maintenance of plant cell lines as single suspension cells with intact cell walls” (Dow AgroSciences, LLC., priority 2006, dated 2012)
